Entries after “also recorded” stand apart in the source; their conditions may differ.
Columns and labels:
microorganisms [1] = assay: Morphology, biofilm and growth disruption by peptides (Table 5); format: cell-based; set-up: key: A: Peptide aggregates; B: Less hyphal formation; Clumps; Diffuse clumps and small polyps; F: Diffuse growth; H: Thin; I: Growth inhibition; Microcolony formation; Rippled; Small polyps; Thick; W: Halo formation on top, microlonies on bottom
From the text: In certain embodiments peptides that induce alterations in phenotype or other biological activities can also be used as antimicrobial effector moieties.

bacteria = assay: Binding of targeting peptides to microorganisms (Table 3); conditions: preferably 1x PBS; for Target(s): microorganism the targeting peptide binds, binding in aqueous buffers that varied with peptide solubility; for Target(s) (microorganisms bound by the targeting peptide) / Target(s) (microorganism bound by the targeting peptide): peptide binding in aqueous buffers that varied depending on peptide solubility
microorganisms [2] = assay: Peptide activities: binding, antimicrobial, growth or phenotype altering (Table 8)
From the text: In certain embodiments, peptides described herein can have multiple activities. Thus for example, a peptide can have both binding/targeting activity and antimicrobial activity. Such peptides can be used, e.g., in a chimeric construct, for any or all of these properties. Thus, for example, a peptide designated “B” in Table 8 can be used as a targeting peptide. If it is also designated G or M it can also be used for antimicrobial activity.

PF-017 (ESIIE; Peptide with targeting and/or antimicrobial activity)
Organism, effect (microorganisms [1]; MRSA): MRSA (M)
Target(s) (bacteria): E. coli
Activities (microorganisms [2]): G B

PF-385 (MIKKSILKIKYYVPVLISLTLILSA; Peptide with targeting and/or antimicrobial activity)
Organism, effect (microorganisms [1]; E. coli): E. coli (A)
Target(s) (microorganisms bound by the targeting peptide) (bacteria): S. epidermidis; also recorded: E. coli; also recorded: P. aeruginosa; also recorded: C. albicans; also recorded: E. faecalis
Activities (microorganisms [2]): G B

PF-558 (ADAPPPLIVRYS; Peptide with targeting and/or antimicrobial activity)
Organism, effect (morphology, biofilm and growth disruption) (microorganisms [1]; B. subtilis): B. subtilis (D)
Organism, effect (morphology, biofilm and growth disruption) (microorganisms [1]; C. jejuni): C. jejuni (H)
Organism, effect (morphology, biofilm and growth disruption) (microorganisms [1]; MRSA): MRSA (C)
Organism, effect (morphology, biofilm and growth disruption) (microorganisms [1]; S. epidermidis): S. epidermidis (M)
Organism, effect (morphology, biofilm and growth disruption) (microorganisms [1]; S. pneumoniae): S. pneumoniae (R)
Target(s) (microorganisms bound by the targeting peptide) (bacteria): S. epidermidis; also recorded: E. coli; also recorded: C. albicans; also recorded: C. jeikeium; also recorded: C. jejuni
Activities (microorganisms [2]): G B

PF-029 (NSTNE; Peptide with targeting and/or antimicrobial activity)
Organism, effect (microorganisms [1]; MRSA): MRSA (M)
Target(s) (bacteria): S. epidermidis; also recorded: M. luteus; also recorded: C. albicans; also recorded: C. jejuni
Activities (microorganisms [2]): G B

PF-459 (EKRMSFNENQSHRPLL; Peptide with targeting and/or antimicrobial activity)
Organism, effect (morphology, biofilm and growth disruption) (microorganisms [1]; S. pneumoniae): S. pneumoniae (H)
Target(s) (microorganisms bound by the targeting peptide) (bacteria): P. aeruginosa
Activities (microorganisms [2]): G B

PF-546 (PIIAPTIKTQIQ; Peptide with targeting and/or antimicrobial activity)
Organism, effect (morphology, biofilm and growth disruption) (microorganisms [1]; C. jeikeium): C. jeikeium (D)
Organism, effect (morphology, biofilm and growth disruption) (microorganisms [1]; E. coli): E. coli (R)
Organism, effect (morphology, biofilm and growth disruption) (microorganisms [1]; E. faecalis): E. faecalis (D)
Organism, effect (morphology, biofilm and growth disruption) (microorganisms [1]; MRSA): MRSA (D)
Organism, effect (morphology, biofilm and growth disruption) (microorganisms [1]; S. epidermidis): S. epidermidis (D)
Organism, effect (morphology, biofilm and growth disruption) (microorganisms [1]; S. pneumoniae): S. pneumoniae (D)
Target(s) (microorganisms bound by the targeting peptide) (bacteria): S. epidermidis; also recorded: E. coli; also recorded: C. albicans; also recorded: S. pneumoniae; also recorded: E. faecalis; also recorded: C. jeikeium
Activities (microorganisms [2]): G B

PF-549 (TGIGPIARPIEHGLDS; Peptide with targeting and/or antimicrobial activity)
Organism, effect (morphology, biofilm and growth disruption) (microorganisms [1]; B. subtilis): B. subtilis (D)
Organism, effect (morphology, biofilm and growth disruption) (microorganisms [1]; MRSA): MRSA (C)
Target(s) (microorganisms bound by the targeting peptide) (bacteria): E. coli; also recorded: C. albicans; also recorded: S. pneumoniae; also recorded: C. jeikeium
Activities (microorganisms [2]): G B

PF-484 (HKKDIRKQVFKN; Peptide with targeting and/or antimicrobial activity)
Organism, effect (morphology, biofilm and growth disruption) (microorganisms [1]; E. faecalis): E. faecalis (A)
Target(s) (microorganisms bound by the targeting peptide) (bacteria): S. epidermidis; also recorded: M. luteus; also recorded: P. mirabilis; also recorded: E. coli; also recorded: E. faecalis; also recorded: C. jeikeium; also recorded: C. jejuni
Activities (microorganisms [2]): G B

PF-472 (MHISHLLDEVEQTEREKAVNVLENMNGNVI; Peptide with targeting and/or antimicrobial activity)
Organism, effect (morphology, biofilm and growth disruption) (microorganisms [1]; C. jejuni): C. jejuni (R)
Organism, effect (morphology, biofilm and growth disruption) (microorganisms [1]; E. faecalis): E. faecalis (A)
Organism, effect (morphology, biofilm and growth disruption) (microorganisms [1]; MRSA): MRSA (C)
Organism, effect (morphology, biofilm and growth disruption) (microorganisms [1]; S. pneumoniae): S. pneumoniae (R)
Target(s) (microorganisms bound by the targeting peptide) (bacteria): S. epidermidis and E. coli and P. aeruginosa and C. albicans and MRSA and S. pneumoniae and E. faecalis and C. jeikeium
Activities (microorganisms [2]): G B

PF-005 (chain 1 MESIFKIKLMNGICRSENMNMKKKNKGEKI; chain 2 MESIFKIKLMNGICRSENMNMKKKNKGEKI; Peptide with targeting and/or antimicrobial activity)
Organism, effect (microorganisms [1]; B. subtilis): B. subtilis (C)
Organism, effect (microorganisms [1]; S. pneumoniae): S. pneumoniae (H)
Target(s) (bacteria): S. epidermidis and E. coli and MRSA and S. pneumoniae and E. faecalis
Activities (microorganisms [2]): G B

PF-566 (EAQQVTQQLGADFNAITTPTATKV; Peptide with targeting and/or antimicrobial activity)
Organism, effect (morphology, biofilm and growth disruption) (microorganisms [1]; B. subtilis): B. subtilis (C)
Organism, effect (morphology, biofilm and growth disruption) (microorganisms [1]; C. jeikeium): C. jeikeium (C)
Organism, effect (morphology, biofilm and growth disruption) (microorganisms [1]; C. jejuni): C. jejuni (D)
Organism, effect (morphology, biofilm and growth disruption) (microorganisms [1]; M. luteus): M. luteus (D)
Organism, effect (morphology, biofilm and growth disruption) (microorganisms [1]; MRSA): MRSA (M)
Organism, effect (morphology, biofilm and growth disruption) (microorganisms [1]; S. pneumoniae): S. pneumoniae (D)
Target(s) (microorganisms bound by the targeting peptide) (bacteria): P. mirabilis; also recorded: S. pneumoniae
Activities (microorganisms [2]): G B

PF-035 (SFYESY; Peptide with targeting and/or antimicrobial activity)
Organism, effect (microorganisms [1]; MRSA): MRSA (M)
Target(s) (bacteria): S. epidermidis and M. luteus and E. coli and C. albicans and MRSA and C. jeikeium and C. jejuni
Activities (microorganisms [2]): G B

PF-550 (STENGWQEFESYADVGVDPRRYVPL; Peptide with targeting and/or antimicrobial activity)
Organism, effect (morphology, biofilm and growth disruption) (microorganisms [1]; B. subtilis): B. subtilis (D)
Target(s) (microorganisms bound by the targeting peptide) (bacteria): S. pneumoniae
Activities (microorganisms [2]): G B

PF-051 (RFFNFEIKKSTKVDYVFAHVDLSDV; Peptide with targeting and/or antimicrobial activity)
Organism, effect (microorganisms [1]; M. luteus): M. luteus (C)
Organism, effect (microorganisms [1]; MRSA): MRSA (D)
Organism, effect (microorganisms [1]; S. epidermidis): S. epidermidis (D)
Organism, effect (microorganisms [1]; S. mutans): S. mutans (D)
Organism, effect (microorganisms [1]; S. pneumoniae): S. pneumoniae (D)
Target(s) (bacteria): S. epidermidis and M. luteus and P. aeruginosa and C. albicans and MRSA and S. pneumoniae and E. faecalis
Activities (microorganisms [2]): G B

PF-034 (EPKKKHFPKMESASSEP; Peptide with targeting and/or antimicrobial activity)
Organism, effect (microorganisms [1]; S. epidermidis): S. epidermidis (A)
Target(s) (bacteria): M. luteus
Activities (microorganisms [2]): G B

PF-053 (KLFGQWGPELGSIYILPALIGSIILIAIVTLILRAMRK; Peptide with targeting and/or antimicrobial activity)
Organism, effect (microorganisms [1]; B. subtilis): B. subtilis (H)
Organism, effect (microorganisms [1]; C. albicans): C. albicans (A)
Organism, effect (microorganisms [1]; C. jeikeium): C. jeikeium (D)
Organism, effect (microorganisms [1]; C. jejuni): C. jejuni (D)
Organism, effect (microorganisms [1]; E. coli): E. coli (A)
Organism, effect (microorganisms [1]; E. faecalis): E. faecalis (A)
Organism, effect (microorganisms [1]; M. luteus): M. luteus (D)
Organism, effect (microorganisms [1]; MRSA): MRSA (D)
Organism, effect (microorganisms [1]; P. aeruginosa): P. aeruginosa (A)
Organism, effect (microorganisms [1]; S. epidermidis): S. epidermidis (C)
Organism, effect (microorganisms [1]; S. pneumoniae): S. pneumoniae (S)
Target(s) (bacteria): S. epidermidis and M. luteus and E. coli and P. aeruginosa and C. albicans and MRSA and S. pneumoniae and E. faecalis
Activities (microorganisms [2]): G B

PF-045 (LDINDYRSTY; Peptide with targeting and/or antimicrobial activity)
Organism, effect (microorganisms [1]; MRSA): MRSA (S)
Target(s) (bacteria): S. epidermidis; also recorded: E. coli; also recorded: E. faecalis; also recorded: C. jejuni
Activities (microorganisms [2]): G B

PF-622 (chain 1 TREDVFSVRLINNIVNKQA; chain 2 TREDVFSVRLINNIVNKQA; Peptide with targeting and/or antimicrobial activity)
Organism, effect (morphology, biofilm and growth disruption) (microorganisms [1]; C. jeikeium): C. jeikeium (D)
Organism, effect (morphology, biofilm and growth disruption) (microorganisms [1]; E. faecalis): E. faecalis (D)
Organism, effect (morphology, biofilm and growth disruption) (microorganisms [1]; MRSA): MRSA (D)
Organism, effect (morphology, biofilm and growth disruption) (microorganisms [1]; S. epidermidis): S. epidermidis (D)
Organism, effect (morphology, biofilm and growth disruption) (microorganisms [1]; S. pneumoniae): S. pneumoniae (M)
Target(s) (microorganism bound by the targeting peptide) (bacteria): S. epidermidis; also recorded: P. aeruginosa; also recorded: C. albicans; also recorded: S. pneumoniae; also recorded: E. faecalis; also recorded: C. jeikeium
Activities (microorganisms [2]): G B

PF-041 (ELLVILPGFI; Peptide with targeting and/or antimicrobial activity)
Organism, effect (microorganisms [1]; MRSA): MRSA (M)
Organism, effect (microorganisms [1]; S. epidermidis): S. epidermidis (R)
Target(s) (bacteria): MRSA
Activities (microorganisms [2]): G B

PF-020 (MKIILLLFLIFGFIVVVTLKSEHQLTLFSI; Peptide with targeting and/or antimicrobial activity)
Organism, effect (microorganisms [1]; M. luteus): M. luteus (C)
Organism, effect (microorganisms [1]; MRSA): MRSA (C)
Organism, effect (microorganisms [1]; S. epidermidis): S. epidermidis (C)
Organism, effect (microorganisms [1]; S. mutans): S. mutans (F)
Organism, effect (microorganisms [1]; S. pneumoniae): S. pneumoniae (D)
Target(s) (bacteria): S. epidermidis and M. luteus and C. albicans and MRSA and S. pneumoniae and E. faecalis
Activities (microorganisms [2]): G B

PF-741 (chain 1 AKREDTVAAQIGANILNLIQ; chain 2 AKREDTVAAQIGANILNLIQ; Peptide with targeting and/or antimicrobial activity)
Organism, effect (morphology, biofilm and growth disruption) (microorganisms [1]; E. coli): E. coli (C)
Organism, effect (morphology, biofilm and growth disruption) (microorganisms [1]; M. luteus): M. luteus (C)
Organism, effect (morphology, biofilm and growth disruption) (microorganisms [1]; MRSA): MRSA (C)
Organism, effect (morphology, biofilm and growth disruption) (microorganisms [1]; P. mirabilis): P. mirabilis (C)
Organism, effect (morphology, biofilm and growth disruption) (microorganisms [1]; S. epidermidis): S. epidermidis (C)
Organism, effect (morphology, biofilm and growth disruption) (microorganisms [1]; S. mutans): S. mutans (D)
Organism, effect (morphology, biofilm and growth disruption) (microorganisms [1]; S. pneumoniae): S. pneumoniae (D)
Target(s) (microorganism bound by the targeting peptide) (bacteria): S. epidermidis and M. luteus and P. mirabilis and P. aeruginosa and C. albicans and MRSA and S. pneumoniae and E. faecalis
Activities (microorganisms [2]): G B

Reference: patent US9597407B2, “Targeted antimicrobial moieties” (C3 Jian, Inc., priority 2009, dated 2017)
